Structures can show the parent of a compound that is named as a salt.
Target: GST-Syk Full Protein (human) (Homo sapiens, UniProt P43405)
Experiment: Syk kinase inhibition test (HTRF method)
Format: biochemical
Settings: HTRF, 100 μM ATP, 30 min room temperature, average; read-out: sykHTRF ave IC50
Procedure: Syk Kinase Inhibition Test (HTRF Method)
After the compounds were serially diluted with dimethylsulfoxide (DMSO), 10 μL of those 10-fold diluted with kinase buffer (20 mM HEPES pH 7.0, 10 mM MgCl2, 50 mM NaCl, 1 mM 2-ME, 0.05% BSA) was added to opti-plate HTRF-96 (Packard) (final DMSO concentration: 2%). 20 μL of a substrate solution (kinase buffer as mentioned above containing Syk Specific-Peptide Substrate Biot-EDPDYEWPSA-NH2 (Peptide Laboratory) 625 nM, 250 μM ATP (SIGMA) was added (final substrate concentration 250 nM, 100 μM ATP), and further 20 μL of an enzyme solution (kinase buffer as mentioned above containing GST-Syk Full Protein (human) 16 nM) (final concentration 6.4 nM) was added and the mixture was immediately stirred with a plate shaker to start enzyme reaction. After reacted at room temperature (20 to 25° C.) for 30 minutes, the enzyme reaction was terminated by adding 100 μL/well of a buffer for terminating and detecting the reaction (30 mM HEPES pH 7.0, 150 mM KF, 0.15% BSA, 0.075% Tween-20, 75 mM EDTA) containing HTRF reagent (5 μg/ml XL665-Streptavidin (CIS bio), 170 ng/ml Eu(K)-anti-PhosphoTyrosin, PT-66 (CIS bio)) (final concentration 20 mM HEPES pH 7.0, 100 mM KF, 0.1% BSA, 0.05% Tween-20, 50 mM EDTA). After allowed to stand still at room temperature for 1 hour, inhibitory effect of a compound against Syk kinase enzymatic activity was evaluated by measuring 665/620 fluorescence ratio to excitation light at 337 nm by ARVO (Wallac).

| IC50 [nM] | Compound |
| --- | --- |
| > 1000 | CCOC(=O)c1nc([C@H](C)NC(=O)OC(C)(C)C)sc1-c1cccc(Nc2cc(C)ccn2)n1 [Compound A-100] |
| > 1000 | CON(C)C(=O)c1nc([C@H](C)NC(C)=O)sc1-c1cccc(Nc2cc(C)ccn2)n1 [Compound A-125] |

Same assay, conditions: Tables 1-x, compounds A; read-out: sykHTRF ave IC50

| IC50 [nM] | Compound |
| --- | --- |
| 100 to 1000 | COCCN(C)C(=O)C1CCN(c2ncc(-c3cccc(Nc4cc(C)ccn4)n3)s2)CC1 [Compound A-451] |
| 100 to 1000 | Cc1ccnc(Nc2cccc(-c3cnc(N4CCC[C@H]4C(=O)N4CCC(O)CC4)s3)n2)c1 [Compound A-659] |
| < 100 | Cc1ccnc(Nc2cccc(-c3cnc(N4CCC(N(C)S(C)(=O)=O)CC4)s3)n2)c1 [Compound A-485, N-methyl-N-(1-{5-[6-(4-methylpyridin-2-ylamino)pyridin-2-yl]thiazol-2-yl}piperidin-4-yl)methanesulfonamide] |
| < 100 | Cc1ccnc(Nc2cccc(-c3cnc(CN(C)CC(N)=O)s3)n2)c1 [Compound A-697, 2-(N-methyl-N-{5-[6-(4-methylpyridin-2-ylamino)pyridin-2-yl]thiazol-2-ylmethyl}amino)acetamide] |
| < 100 | Cc1ccnc(Nc2cccc(-c3cnc(N(C)c4ccc(CCC(=O)O)cc4)s3)n2)c1 [Compound A-639, 3-[4-(N-methyl-N-{5-[6-(4-methylpyridin-2-ylamino)pyridin-2-yl]thiazol-2-yl}amino)phenyl]propionic acid] |
| 100 to 1000 | Cc1ccnc(Nc2cccc(-c3cnc(N(C)C4CCC(C(=O)N5CCC(O)CC5)CC4)s3)n2)c1 (stereo not shown) [Compound A-495] |
| < 100 | Cc1ccnc(Nc2cccc(-c3cnc(CN(C)C(C)(C)C(N)=O)s3)n2)c1 [Compound A-720, 2-methyl-2-(N-methyl-N-{5-[6-(4-methylpyridin-2-ylamino)pyridin-2-yl]thiazol-2-ylmethyl}amino)propionamide] |
| 100 to 1000 | Cc1ccnc(Nc2cccc(-c3cnc(CN(C)CC(=O)N(C)C)s3)n2)c1 [Compound A-688] |
| 100 to 1000 | Cc1ccnc(Nc2cccc(-c3cnc(N(C)C4CCN(C(=O)NC5CCCCC5)CC4)s3)n2)c1 [Compound A-696] |
| 100 to 1000 | CCOC(=O)N1CCC(N(C)c2ncc(-c3cccc(Nc4cc(C)ccn4)n3)s2)CC1 [Compound A-445] |
| < 100 | Cc1ccnc(Nc2cccc(-c3cnc(N4CCCC(CCC(=O)O)C4)s3)n2)c1 (stereo not shown) [Compound A-704, 3-(1-{5-[6-(4-methylpyridin-2-ylamino)pyridin-2-yl]thiazol-2-yl}piperidin-3-yl)propionic acid] |
| 100 to 1000 | COC(=O)N(CCC(=O)O)Cc1ncc(-c2cccc(Nc3cc(C)ccn3)n2)s1 [Compound A-584] |
| < 100 | Cc1ccnc(Nc2cccc(-c3cnc(N4C5CCC4CC(CC(=O)O)C5)s3)n2)c1 (stereo not shown) [Compound A-649, (8-{5-[6-(4-methylpyridin-2-ylamino)pyridin-2-yl]thiazol-2-yl}-8-azabicyclo[3.2.1]oct-3-yl)acetic acid] |
| 100 to 1000 | CNC(=O)[C@@H]1CCCN1Cc1ncc(-c2cccc(Nc3cc(C)ccn3)n2)s1 [Compound A-666] |
| 100 to 1000 | Cc1ccnc(Nc2cccc(-c3cnc(N4CCNCC4)s3)n2)c1 [Compound A-406] |
| 100 to 1000 | Cc1ccnc(Nc2cccc(-c3cnc(N(C)C(C(=O)NCC(F)(F)F)C(C)C)s3)n2)c1 (stereo not shown) [Compound A-676] |
| < 100 | CN(C[C@H]1CC[C@H](C(=O)O)CC1)c1ncc(-c2cccc(Nc3ccccn3)n2)s1 [Compound A-699, trans-4-[(N-methyl-N-{5-[6-(pyridin-2-ylamino)pyridin-2-yl]thiazol-2-yl}amino)methyl]cyclohexanecarboxylic acid dihydrochloride] |
| < 100 | Cc1ccnc(Nc2cccc(-c3cnc(N4CCC(CC(=O)O)CC4)s3)n2)c1 [Compound A-653, (1-{5-[6-(4-methylpyridin-2-ylamino)pyridin-2-yl]thiazol-2-yl}piperidin-4-yl)acetic acid] |
| < 100 | Cc1ccnc(Nc2cccc(-c3cnc(N(C)CC(C)(C)O)s3)n2)c1 [Compound A-702, 2-methyl-1-(N-methyl-N-{5-[6-(4-methylpyridin-2-ylamino)pyridin-2-yl]thiazol-2-yl}amino)propan-2-ol] |
| < 100 | Cc1ccnc(Nc2cccc(-c3cnc(N(C[C@H]4CC[C@H](C(=O)O)CC4)C(C)C)s3)n2)c1 [Compound A-626, trans-4-[(N-isopropyl-N-{5-[6-(4-methylpyridin-2-ylamino)pyridin-2-yl]thiazol-2-yl}amino)methyl]cyclohexanecarboxylic acid] |

Further lines, the molecule ahead of its results:

| Compound | IC50 [nM] |
| --- | --- |
| Cc1ccnc(Nc2cccc(-c3cnc(N(C)Cc4ccc(OCc5ccccc5)cc4)s3)n2)c1 [Compound A-462] | 100 to 1000 |
| Cc1ccnc(Nc2cccc(-c3cnc(N4CCC(C(=O)N5CCOCC5)CC4)s3)n2)c1 [Compound A-454] | 100 to 1000 |
| CN(c1ncc(-c2cccc(Nc3cc(C(F)(F)F)ccn3)n2)s1)C(C)(C)c1ccc(C(=O)O)cc1 [Compound A-654, 4-[1-methyl-1-(N-methyl-N-{5-[6-(4-trifluoromethylpyridin-2-ylamino)pyridin-2-yl]thiazol-2-yl}amino)ethyl]benzoic acid] | < 100 |
| CN(CCC/C=C/C(=O)O)c1ncc(-c2cccc(Nc3cc(C(F)(F)F)ccn3)n2)s1 [Compound A-657, (E)-6-(N-methyl-N-{5-[6-(4-trifluoromethylpyridin-2-ylamino)pyridin-2-yl]thiazol-2-yl}amino)hex-2-enoic acid dihydrochloride] | < 100 |
| COC(=O)c1cccc(CN(C)c2ncc(-c3cccc(Nc4cc(C)ccn4)n3)s2)c1 [Compound A-581] | 100 to 1000 |
| O=C(O)C1CCN(c2ncc(-c3cccc(Nc4ccccn4)n3)s2)CC1 [Compound A-683] | 100 to 1000 |
| Cc1ccnc(Nc2cccc(-c3cnc(N4CCCc5ccc(C(=O)O)cc54)s3)n2)c1 [Compound A-621] | 100 to 1000 |
| Cc1ccnc(Nc2cccc(-c3cnc(N4CCC(C5=NC(C)(C)CO5)CC4)s3)n2)c1 [Compound A-456] | 100 to 1000 |
| Cc1cc(C)nc(Nc2cccc(-c3cnc(N4CCC(CC(=O)O)CC4)s3)n2)c1 [Compound A-623] | 100 to 1000 |
| Cc1ccnc(Nc2cccc(-c3cnc(NCc4ccccc4)s3)n2)c1 [Compound A-694] | 100 to 1000 |

Same assay, conditions: Tables 2-x, thiophene compounds B; read-out: sykHTRK ave IC50

| IC50 [nM] | Compound |
| --- | --- |
| 100 to 1000 | Cc1ccnc(Nc2cccc(-c3ccc(CNC[C@H]4CC[C@H](C(=O)O)CC4)s3)n2)c1 [Compound B-118] |
| 100 to 1000 | Cc1ccnc(Nc2cccc(-c3ccc(CNC(=O)[C@H]4CC[C@H](C(=O)O)CC4)s3)n2)c1 [Compound B-121] |
| 100 to 1000 | Cc1ccnc(Nc2cccc(-c3ccc(C(=O)N4CCC(C(=O)O)CC4)s3)n2)c1 [Compound B-115] |

More lines, now with the values behind:

| Compound | IC50 [nM] |
| --- | --- |
| Cc1ccnc(Nc2cccc(-c3ccc(C(C)OCc4ccc(C(=O)O)cc4)s3)n2)c1 (stereo not shown) [Compound B-108] | 100 to 1000 |
| CC(=O)c1ccc(-c2cccc(N(C)c3cc(C)ccn3)n2)s1 [Compound B-90] | > 1000 |
| C/C(=C\C(=O)O)c1ccc(-c2cccc(Nc3cc(C)ccn3)n2)s1 [Compound B-114] | 100 to 1000 |
| CC(=O)c1ccc(-c2cccc(N(C(C)=O)c3cc(C)ccn3)n2)s1 [Compound B-89] | > 1000 |
| Cc1ccnc(Nc2cccc(-c3ccc(CNCc4ccc(C(=O)O)cc4)s3)n2)c1 [Compound B-116, 4-[({5-[6-(4-methylpyridin-2-ylamino)pyridin-2-yl]thiophen-2-ylmethyl}amino)methyl]benzoic acid] | < 100 |

— patent US7803801B2, “Aminopyridine compounds having Syk inhibitory activity” (Japan Tobacco, Inc., priority 2005, dated 2010)
